From patent publication US8323673B2, “Concentrated, non-foaming solution of quaternary ammonium compounds and methods of use” (University of Arkansas, priority 1996, dated 2012)

What was measured:
[1] = test system: Arcobacter butzleri; assay: MBC, macrodilution broth method; type: cell-based; conditions: microaerophilic, 37° C., 48 hours
Protocol: (§1) Experiments were conducted by microaerophilic incubation at 37° C. for 48 hours. An aliquot of each dilution was pour plated in agar and incubated in microaerophilic conditions at 37° C. for 48 hours. MBCs were determined as the lowest dilution with no growth.

[2] = test system: Campylobacter jejuni; assay: MBC, macrodilution broth method; type: cell-based; conditions: microaerophilic, 37° C., 48 hours
Protocol: as §1

[3] = test system: Escherichia coli O157:H7
[4] = test system: S. typhimurium; assay: Concentration and time study: reduction of viable S. typhimurium on chicken skin; set-up: species or system Salmonella typhimurium; conditions: CPC 4000 and 8000 ppm in 5% glycerin-PBS, contact times as low as 3 min
Protocol: CPC in the glycerin-PBS mixture. […] Salmonella storage was on TSA. Inoculum preparation was performed as follows.
Culture plates with the skin pieces were incubated (30 min., 35° C.), and then the incubating solution was removed by aspiration. The inoculated skins were treated with 5 ml of the test solution. […] A corner of the bag was aseptically cut and the entire contents were transferred to a sterile centrifuge tube, which was then spun for 10 min (12,000 rpm, 20° C.). The pellet was resuspended in 5 ml 0.1% (w/v) peptone/water.

[5] = test system: Salmonella; assay: Another spraying experiment on chicken carcasses; conditions: 90 second spraying of chicken carcasses with 5,000 ppm CPC
[6] = test system: L. monocytogenes; assay: Reduction of viable Listeria monocytogenes attached to chicken skin; conditions: CPC 2000 ppm or higher
Source text: The steps of Example 2 were followed except that L. monocytogenes was used to inoculate the chicken skin and the media in the plastic bag used in the Stomacher 400 contained 0.1% peptone.

[7] = test system: L. monocytogenes; assay: Inhibition of attachment of Listeria monocytogenes to chicken skin
Source text: The steps of Example 3 were followed except that L. monocytogenes was used to inoculate the chicken skin and the media in the plastic bag used in the Stomacher 400 contained 0.1% peptone.

[8] = test system: C. jejuni; assay: Spraying whole chicken carcasses with a commercial sprayer; set-up: species or system Campylobacter jejuni; conditions: for BACTERIA PRESENT, 5,000 ppm CPC: preexisting C. jejuni, MPN, spray 20 seconds at 60 psi
Protocol: (§2) These experiments tested the effect that spraying QACs on whole chicken carcasses using a commercial sprayer would have on the reduction of viable bacteria. The bacterial inoculating solutions were made as follows: E. coli (ATTC #25922) was grown in brain heart infusion broth (BHI) for 20-24 h and then diluted to a 1:1000 concentration by adding 0.5 ml of E. coli culture to 500 ml of physiological saline solution (PSS). S. typhimurium was grown in BHI for 20-24 h and then diluted to a 1:5000 concentration by adding 0.1 ml of S. typhimurium culture to 500 ml of physiological saline solution (PSS). […] Prechill chicken carcasses were obtained from a local poultry processing plant for each trial. The carcasses were placed on a shackle line and 1 ml of the bacterial inoculating solution was sprayed on the breast of the carcass, and 1 ml was sprayed on the back. The bacteria were allowed to attach for 30 min at room temperature. After attachment the carcasses were rinsed on the shackle line with tap water for 20 seconds. The carcasses were divided into groups of ten. […] In the S. typhimurium tests, there was also a group that was not sprayed after inoculation to evaluate the effect of the spray.
(§3) For all of the bacteria, one group of carcasses were treated with the Johnson™ washer for 20 seconds at 60 psi with 35 cups of tap water. After the rinse, the carcasses were allowed to set for 90 seconds, and then rinsed with 20 cups of tap water for 20 seconds at 80 psi. This rinse cycle was repeated either two or three times. The interval of each rinse was also 90 seconds. […] This rinse cycle was repeated either two or three times.
(§4) After treatment the carcasses were placed in plastic bags and 100 ml of 0.1% buffered peptone water (BPW) was added to each bag. The bags were mechanically shaken and the rinse collected for most probable number (MPN) technique. Petrifilm™ was also employed for evaluation of total aerobic plate counts (TPC). Preexisting (not inoculated) C. jejuni was enumerated by the MPN technique and E. coli by Petrifilm™.

[9] = test system: E. coli; assay: as above; set-up: species or system Escherichia coli; conditions: for BACTERIA PRESENT, 5,000 ppm CPC: Petrifilm, spray 20 seconds at 60 psi
Protocol: as §2, §3, §4

[10] = test system: S. typhimurium; assay: as above; set-up: species or system Salmonella typhimurium
Protocol: as §2, §3, §4

[11] = Ames assay for mutagenicity; type: cell-based
Protocol: The present invention has an important application in the food processing industry, as well as for home and institutional food preparation. QACs are readily available and the cost of carrying out the method of the present invention is not expensive as compared to existing antimicrobial processes. […] A range of concentrations of QACs are effective in preventing broad spectrum microbial growth on food products. QACs are tested by the Ames assay for mutagenicity.

[12] = test system: Escherichia coli O157:H7; remark: listed apart in the source
[13] = test system: Escherichia coli O157:H7; remark: listed apart in the source

## CCCCCCCCCCCCCCCC[n+]1ccccc1 [CPC, cetylpyridinium chloride]
[1]; CPC 0.50 μg/mL
  CPC Vs Arcobacter Butzleri, growth in MBC test: +
[1]; CPC 0.98 μg/mL
  CPC Vs Arcobacter Butzleri, growth in MBC test: +
[1]; CPC 1.96 μg/mL
  CPC Vs Arcobacter Butzleri, growth in MBC test: +
[1]; CPC 3.91 μg/mL
  CPC Vs Arcobacter Butzleri, growth in MBC test: +
[1]; CPC 7.81 μg/mL
  CPC Vs Arcobacter Butzleri, growth in MBC test: +
[1]; CPC 15.63 μg/mL
  CPC Vs Arcobacter Butzleri, growth in MBC test: +
[1]; CPC 31.25 μg/mL
  CPC Vs Arcobacter Butzleri, growth in MBC test: +
[1]; CPC 62.5 μg/mL
  CPC Vs Arcobacter Butzleri, growth in MBC test: −
[1]; CPC 125 μg/mL
  CPC Vs Arcobacter Butzleri, growth in MBC test: −
[1]; CPC […]
  CPC Vs Arcobacter Butzleri, growth in MBC test: +
[2]; CPC 0.50 μg/mL
  CPC Vs Campylobacter Jejuni, growth in MBC test: +
[2]; CPC 0.98 μg/mL
  CPC Vs Campylobacter Jejuni, growth in MBC test: +
[2]; CPC 1.96 μg/mL
  CPC Vs Campylobacter Jejuni, growth in MBC test: +
[2]; CPC 3.91 μg/mL
  CPC Vs Campylobacter Jejuni, growth in MBC test: +
[2]; CPC 7.81 μg/mL
  CPC Vs Campylobacter Jejuni, growth in MBC test: −
[2]; CPC 15.63 μg/mL
  CPC Vs Campylobacter Jejuni, growth in MBC test: −
[2]; CPC 31.25 μg/mL
  CPC Vs Campylobacter Jejuni, growth in MBC test: −
[2]; CPC 62.5 μg/mL
  CPC Vs Campylobacter Jejuni, growth in MBC test: −
[2]; CPC 125 μg/mL
  CPC Vs Campylobacter Jejuni, growth in MBC test: −
[2]; CPC […]
  CPC Vs Campylobacter Jejuni, growth in MBC test: +
[3]
  reduction in attached bacteria: 62-64%
[4]
  decontamination (Salmonella reduction) on chicken skin: ~5 log10
[5]
  reduction of Salmonella: 3.3 log10
[6]
  reduction in L. monocytogenes: > 4 log10
[7]; 50 ppm CPC
  reduction of attached bacteria: 82%
[7]; 100 ppm CPC
  reduction of attached bacteria: 92%
[7]; 500 and 1000 ppm CPC
  reduction of attached bacteria: 100%
[8]; Trial 1
  Reduction in Log10 (water control vs 5,000 ppm CPC): 2.613 Log10
  BACTERIA PRESENT, 5,000 ppm CPC: 0
[8]; Trial 2
  Reduction in Log10 (water control vs 5,000 ppm CPC): 2.014 Log10
  BACTERIA PRESENT, 5,000 ppm CPC: 0.629
[9]; Trial 1
  Reduction in Log10 (water control vs 5,000 ppm CPC): 1.588 Log10
  BACTERIA PRESENT, 5,000 ppm CPC: 0.386
[9]; Trial 2
  Reduction in Log10 (water control vs 5,000 ppm CPC): 0.920 Log10
  BACTERIA PRESENT, 5,000 ppm CPC: 0.460
[10]; trial 1 (Dec. 02, 1996)
  Reduction, No Spray vs. CPC Treatment: 1.047 Log10 CFUs
  Reduction, Spray vs. CPC Treatment: 0.744 Log10 CFUs
  S. typhimurium, 5,000 ppm CPC: 4.295 Log10 CFUs
[10]; trial 2 (Dec. 09, 1996)
  Reduction, No Spray vs. CPC Treatment: 3.327 Log10 CFUs
  Reduction, Spray vs. CPC Treatment: 2.955 Log10 CFUs
  S. typhimurium, 5,000 ppm CPC: 1.977 Log10 CFUs
[10]; trial 3 (Dec. 16, 1996)
  Reduction, No Spray vs. CPC Treatment: 2.395 Log10 CFUs
  Reduction, Spray vs. CPC Treatment: 2.548 Log10 CFUs
  S. typhimurium, 5,000 ppm CPC: 2.606 Log10 CFUs
[10]; trial 4 (Jan. 27, 1997)
  Reduction, No Spray vs. CPC Treatment: 3.69 Log10 CFUs
  Reduction, Spray vs. CPC Treatment: 3.45 Log10 CFUs
  S. typhimurium, 5,000 ppm CPC: 1.03 Log10 CFUs
[10]; trial 5 (Feb. 03, 1997)
  Reduction, No Spray vs. CPC Treatment: 2.76 Log10 CFUs
  Reduction, Spray vs. CPC Treatment: 2.79 Log10 CFUs
  S. typhimurium, 5,000 ppm CPC: 1.426 Log10 CFUs
[10]; wash water of the S. typhimurium runs
  reduction of Salmonella by CPC in the wash water: 1 log
[11]
  mutagenicity by the Ames assay: nonmutagenic
[12]
  number of attached bacteria reduced to: below 0.1%
[13]
  reduction in the number of bacteria attached to the beef: 76%
